{"source": "patent US20140121235A1", "about": "“Method for Treating S6K-Overexpressing Cancers” (Rush University Medical Center, priority 2012, published 2014)", "assay_type_in_all_cases": "cell-based", "key": {"[1]": {"system": "Raf-1 phosphorylation", "assay": "Western blot of Raf-1 phosphorylation in A375 cells", "experimental": "A375 cells seeded in a 6-well plate were starved in DMEM medium containing 0.5% FBS for 2 hr and treated with the indicated concentration of A77 1726 or PLX 4720 (1 μM) for another 2 hr (A) or treated with A77 1726 (100 μM) for the indicated time (B & C). Cells were harvested and analyzed for protein phosphorylation by specific antibodies as indicated. Protein loading was monitored by stripping membrane and re-probing with antibodies against non-phosphorylated proteins. (D) Uridine fails to reverse the effect of A77 1726 on the PI-3 and MAP kinase pathways. A375 cells seeded in a 6-well plate were starved in DMEM medium containing 05% FBS for 2 hr and treated with the indicated concentration of A77 1726 in the absence or presence of uridine (200 μM). Phosphorylated and total proteins were analyzed by Western blot as described above.\nCells grown in 6-well plates were harvested and lysed in NP-40 lysis buffer (50 mM Tris-HCI (pH 8.0), 150 mM NaCl, 1% NP-40, 5 mM EDTA, 10 μg/ml aprotinin, 10 μg/ml leupeptin, and 1 mM phenylmethylsulfonyl fluoride). After incubation on ice for 30 min, the cell lysates were prepared by spinning down at 4° C., 15,000 rpm for 15 min. […]"}, "[2]": {"system": "MCF-7 cells", "assay": "Western blot of protein phosphorylation in MCF-7 cells", "experimental": "(A) A77 1726 induces MAP kinase activation in A375 cells cultured in 10% fetal bovine serum. A375 cells were seeded in a 6-well plate overnight and then stimulated with various concentrations of A77 1726 or PLX 4720 (1 μM) for 2 hr. Cells were harvested and analyzed for MAP kinase activation by anti-phospho-ERK1/2 antibody. The membrane was stripped and re-probed with anti-ERK1/2 antibody. (B) Lack of the feedback activation of the MAP and PI-3 kinase pathways in BT-20 cells. BT20 cells seeded in 6-well plates were starved in DMEM medium containing 05% EBS for 2 hr and treated with A77 1726 (0, 50 or 100 μM), Cells were harvested and analyzed for protein phosphorylation by specific antibodies as indicated. Protein loading was monitored by stripping membrane and re-probing with antibodies against non-phosphorylated proteins. (C) Strong feedback activation of the PI-3 kinase pathway and weak feedback activation of the MAP kinase pathway in MCF-7 cells by A77 1726 and rapamycin. […] Cells were harvested and analyzed for protein phosphorylation with the indicated antibodies. […] Cells were harvested and analyzed for protein phosphorylation by specific antibodies as indicated. Protein loading was monitored by stripping membrane and re-probing with antibodies against nonphosphorylated proteins. […]"}, "[3]": {"system": "A375 cells", "assay": "Cell cycle analysis (propidium iodine, flow cytometer)", "settings": "A375 cells, A77 1726 at 50 μM, 24 hr", "experimental": "(A) Ability of uridine to relieve the cell cycle arrest in the S phase. A375 cells grown in 6-well plates were treated with the indicated concentration of A771726 with or without uridine (200 μM) for 24 hr. Cell cycle was analyzed in a flow cytometer as described in Materials and Methods. (B) Effect of the MAP kinase pathway inhibitors on A77 1726-mediated cell cycle arrest in the S phase. A375 cells were treated with A771726 (100 μM) in the absence or presence of 0.1% DMSO, […] (1 μM), U0126 (10 μM), PD98059 (10 for 24 hr. Single cell suspensions were prepared and analyzed for cell cycle in a flow cytometer. (C) Effect of the PI-3 kinase pathway inhibitors and their effect on A77 1726-mediated cell cycle arrest. A375 cells were treated with A77 1726 (100 μM), rapamycin (20 nM), and/or LY294002 (10 μM). After incubation for 24 hr, cells were harvested and analyzed for cell cycle progress.\nCells were grown in complete RPMI1640 medium with 10% fetal bovine serum in 6-well plates. Upon 60% confluence, the cells were treated with vehicle or with indicated concentrations of A77 1726 or various inhibitors as indicated for 24 hr. Cells were pulsed with 10 μM BrdU for 2 hr. Cells were harvested, denatured with 2N HCl for 5 min at room temperature followed by neutralization with 0.1M borate buffer (pH 8.5). After washing and blocking with normal mouse serum, the cells were stained with an Alexa Fluor 488-conjugated anti-BrdU monoclonal antibody (BD Bioscience), followed by analysis in a flow cytometer. Alexa Fluor 488-conjugated mouse IgG was included as a control. For cell cycle analysis, the cells were harvested and fixed with 2 ml cold 70% ethanol in PBS overnight at 4° C. Fixed cells were then washed 3 times with PBS, treated with RNaseA (100 μg/ml in 0.5 ml PBS). After incubation at room temperature for 30 min, cells were stained with 2.5 μl propidium iodine (10 mg/ml.) and immediately analyzed for DNA content in a flow cytometer."}}, "note": "Entries after “also recorded” stand apart in the source; their conditions may differ."}
{"smiles": "C/C(O)=C(\\C#N)C(=O)Nc1ccc(C(F)(F)F)cc1", "note": "[A77 1726]", "values": [{"measurement": "effect on Raf-1 phosphorylation", "setting": "[1]", "value": "no increased Raf-1 phosphorylation; also recorded: had no effect"}, {"measurement": "effect on ERK phosphorylation", "setting": "[2]", "value": "slightly induced"}, {"measurement": "effect on S6^S235/236 phosphorylation", "setting": "[2]", "value": "Inhibition"}, {"measurement": "effect on cell cycle", "setting": "[3]", "value": "sufficient to arrest cell cycle in the S phase"}]}
